In patent US20110117120A1, “Plasmodium falciparum HLA class I restricted T-cell epitopes” (priority 2009, published 2011):
No end group written: not given here.

Key:
Type in all cases: cell-based, human
[1] = system: PBMC; experiment: ELISpot IFN-γ assay with PBMC of Ad5-PfCA immunized volunteers (Example 1); conditions: for IFN-γ ELISpot activity of individual 15-mer peptide: threshold 40 SFC/million; for ELISpot activity of 1 month PBMC: v005, PBMC 1 month
Method: In order to assess the pools for their ability to induce T-cell responses, specifically CD 8^+ responses, PBMC, 1 month post immunization were used, from the five volunteers in Table 1, in ELISpot assays. In these studies, IFN-γ activity was measured in response to exposure to the peptide pools. The assays were conducted essentially as described by Wang, et al., Proc. Natl. Acad. Sci. (U.S.A.), 98: 10817-22.
The stimulation of circulating antigen-specific T cell lymphocytes was evaluated by measurement of γ-IFN induction by ELISPOT. The ELISpot assay was conducted using thawed cryopreserved PBMC at 200 K cells per well. Pre-challenge cells were taken at day 21 and day 22 post AdPfCA vaccination. Cells were suspended in […] complete medium and were stimulated with AMA1 peptides suspended in […] of complete medium. Peptide concentrations used in assays was 10 μg/ml of each peptide tested. Cultures were incubated for 36 h at 37° C., 5% CO2. Depending on availability of cells, each PBMC sample was assayed in duplicate, triplicate, or quadruplicate and the number of IFN-γ-secreting cells recognized as spot-forming cells (SFC) was enumerated using an automated ELISpot reader. In duplicate assays, all values were used in analysis. For triplicate or quadruplicate assays, outliers were rejected if any single value contributed more than 50% of the standard deviation of the triplicate (or quadruplicate) and if its value was three-fold greater or less than the average of the remaining two (or three) values. The mean spot forming cells (SFCs) obtained in negative control wells were subtracted from the value of each test well from the same sample. Negative counts generated by this background subtraction were converted to zero. The mean spot number of the test sample was then calculated and expressed as SFC/million PBMCs. Values obtained with pre-vaccinated samples were subtracted from the post-vaccination values.

[2] = system: CD4+ or CD8+ T cell depleted PBMC; experiment: ELISpot IFN-γ assay after CD4+ or CD8+ T cell depletion of PBMC (Example 1); parameters: % change of ELISpot activity, CD8 dep vs control: concentration or dose not given beside the values; ELISpot IFN-γ activity, Control dep / ELISpot IFN-γ activity, CD4 dep / ELISpot IFN-γ activity, CD8 dep: unit not given here; conditions: for ELISpot IFN-γ activity, CD4 dep: CD4+ T cells depleted; for ELISpot IFN-γ activity, CD8 dep: CD8+ T cells depleted; for ELISpot IFN-γ activity, Control dep: mock depletion
Method: PBMC population depletion was conducted using anti-human CD4+ and anti-CD8^+ coated Dynabeads™ M-450 (Dynal, Great Neck, N.Y.) following the manufacturer's instructions. Mock depletion was done with Dynabeads coated with Sheep anti-mouse IgG. Flow cytometry confirmed that T-cell subset depletions were >99% in all experiments. The data is presented as the % effect (decrease) in activity after T cell subset depletion.
Finally, we wanted to confirm that indeed the responses to AMA14e were mediated by CD8^+ T cells. We compared activity to AMA14e in ELISpot depletion assays and ICS CD4^+ or CD8^+ T cell IFN-γ assays with Ap1-12 and recombinant AMA1 protein with v001 and v005 (FIG. 3). CD8^+ T cell depletion reduced ELISpot activity to AMA14e by about 85% in v001 and 95% in v005.

[3] = system: CD8+ or CD4+ T-cell depleted PBMC; experiment: ELISpot IFN-γ assay after CD8+ or CD4+ T-cell depletion (Example 2, Table 6); conditions: for CD4^+ depletion, test: CD4+ depleted; for CD8^+ Depletion, test: CD8+ depleted
Method: PBMC population depletion was conducted using anti-human CD4+ and anti-CD8^+ coated Dynabeads™ M-450 (Dynal, Great Neck, N.Y.) following the manufacturer's instructions. Mock depletion was done with Dynabeads coated with Sheep anti-mouse IgG. Flow cytometry confirmed that T-cell subset depletions were >99% in all experiments. The data is presented as the % effect (decrease) in activity after T cell subset depletion. […]
The results of this study, summarized in Table 6, identified other CD8^+ epitopes, associated specific HLA class I genes.

[4] = system: CD4+ and CD8+ T cells of PBMC; experiment: Intracellular cytokine staining (ICS) of CD4+ and CD8+ T cells; conditions: for CD8^+ T cell IFN-γ response in ICS: HLA-matched volunteers, FIG. 1 upper panel
Method: ICS was performed on PBMCs with costimulatory antibodies anti-CD28 and […] (obtained from BD Bioscience™, San Jose, Calif.). The peptides were used at the same concentrations as in ELISpot assays. Stimulants were added t cells and incubated at 37° C. with 5% CO2 for 2 hr. Golgi Plug™ (Brefeldin A) (BD Bioscience™, San Jose, Calif.) was added at a final concentration of 0.6 μL/mL and incubated at 37° C. with 5% CO2 overnight. Cells were stained with anti-CD3 (Alexa Fluor 700™), anti-CD4 (PerCP™), and anti-CD8 Pacific Blue™ (obtained from BD Bioscience™, San Jose, Calif.). and 1 μg/mL of live/dead fixable blue dye, incubated and washed. Cells were permeabilized with Cytofix/Cytoperm™ solution (obtained from BD Bioscience™, San Jose, Calif.), incubated and washed. Cells were stained intracellularly with anti-CD3 ([…]), anti-CD4 (PerCP™), and anti-CD8 Pacific Blue™, anti-IFN-γ FITC, anti-TNF PE, and anti-IL2 APC, incubated and washed. Cells were resuspended and the entire available sample was acquired by flowcytometry. The gating strategy included progressively measuring total cells; viable cells only; lymphocytes; T cells; CD4^+ CD8^+ populations; and a specific cell type expressing a specific cytokine. Histograms were used to determine the total production of IFN-γ, IL2, and TNF for the CD4^+ and CD8^+ populations. Boolean gates were used to determine cells producing combinations of cytokines.
In these studies, T cells containing IFN-γ, IL2, or TNFα, were gated into different subsets: IFN-γ+, IL2+, TNFα−; IFN-γ+, IL2-, TNFα+; IFN-γ+, IL2+, TNFα+; or IFN-γ+, IL2−, TNFα− T cells, and stimulated with the predicted epitopes and their parent peptide pool. The frequency of CD8^+ T cells producing total IFN-γ was far greater than CD4^+ T cell responses (FIG. 1, upper panel), which were extremely low.

[5] = Vol. 1550-10, 12 wk post challenge
[6] = Vol. 1550-11, 4 wk post challenge

Sequence: INEHREHPKEYEYPL [Ap1-11]
- IFN-γ ELISpot activity of individual 15-mer peptide ([1]; Volunteer 002): 180 SFC/10^6
- IFN-γ ELISpot activity of individual 15-mer peptide ([1]; Volunteer 005): 322 SFC/10^6
- % change of ELISpot activity, CD4 dep vs control ([2]; V002): −18%
- % change of ELISpot activity, CD8 dep vs control ([2]; V002): −94%
- ELISpot IFN-γ activity, CD4 dep ([2]; V002): 152
- ELISpot IFN-γ activity, CD8 dep ([2]; V002): 11
- ELISpot IFN-γ activity, Control dep ([2]; V002): 185
- % change of ELISpot activity, CD4 dep vs control ([2]; V005): −37%
- % change of ELISpot activity, CD8 dep vs control ([2]; V005): −100%
- ELISpot IFN-γ activity, CD4 dep ([2]; V005): 145
- ELISpot IFN-γ activity, CD8 dep ([2]; V005): 0
- ELISpot IFN-γ activity, Control dep ([2]; V005): 233

Sequence: EDIPHVNEFPAIDLF [Ap7-3]
- IFN-γ ELISpot activity of individual 15-mer peptide ([1]; Volunteer 001): 139 SFC/10^6

Sequence: NQYLKDGGFAFPPTE [Ap4-5]
- IFN-γ ELISpot activity of individual 15-mer peptide ([1]; Volunteer 005): 50 SFC/10^6
- ELISpot activity of 1 month PBMC [1]: 50 sfc/m

Sequence: FKADRYKSHGKGYNW [Ap8-6]
- IFN-γ ELISpot activity of individual 15-mer peptide ([1]; Volunteer 012): 143 SFC/10^6
- CD4^+ depletion % change [3, 5]: 26%
- CD8^+ Depletion % change [3, 5]: 100%
- CD4^+ depletion, test [3, 5]: 81 SFC/10^6
- CD8^+ Depletion, test [3, 5]: 0 SFC/10^6
- CD4^+ depletion, control [3, 5]: 109 SFC/10^6
- CD8^+ Depletion, control [3, 5]: 109 SFC/10^6

Sequence: ETQKCEIFNVKPTCL [Ap8-11]
- IFN-γ ELISpot activity of individual 15-mer peptide ([1]; Volunteer 001): 48 SFC/10^6
- IFN-γ ELISpot activity of individual 15-mer peptide ([1]; Volunteer 005): 218 SFC/10^6
- IFN-γ ELISpot activity of individual 15-mer peptide ([1]; Volunteer 008): 48 SFC/10^6

Sequence: NEVVVKEEY [Epitope 1, NEVVVKEEY]
- CD8^+ T cell IFN-γ response in ICS [4]: equal or more CD8^+ IFN-γ than the parent peptide pool

Sequence: CEIFNVKPTCLINNS [Ap8-12]
- IFN-γ ELISpot activity of individual 15-mer peptide ([1]; Volunteer 005): 127 SFC/10^6

Sequence: TSNNEVVVKEEYKDE [Ap10-13]
- IFN-γ ELISpot activity of individual 15-mer peptide ([1]; Volunteer 001): 250 SFC/10^6
- IFN-γ ELISpot activity of individual 15-mer peptide ([1]; Volunteer 012): 233 SFC/10^6
- % change of ELISpot activity, CD4 dep vs control ([2]; V001): +148%
- % change of ELISpot activity, CD8 dep vs control ([2]; V001): −88%
- ELISpot IFN-γ activity, CD4 dep ([2]; V001): 252
- ELISpot IFN-γ activity, CD8 dep ([2]; V001): 13
- ELISpot IFN-γ activity, Control dep ([2]; V001): 103
- % change of ELISpot activity, CD4 dep vs control ([2]; V012): +14%
- % change of ELISpot activity, CD8 dep vs control ([2]; V012): −100%
- ELISpot IFN-γ activity, CD4 dep ([2]; V012): 90
- ELISpot IFN-γ activity, CD8 dep ([2]; V012): 0
- ELISpot IFN-γ activity, Control dep ([2]; V012): 79

Sequence: LLSAFEFTYMINFGR [Ap1-3]
- IFN-γ ELISpot activity of individual 15-mer peptide ([1]; Volunteer 001): 48 SFC/10^6
- % change of ELISpot activity, CD4 dep vs control ([2]; V001): −32%
- % change of ELISpot activity, CD8 dep vs control ([2]; V001): −56%
- ELISpot IFN-γ activity, CD4 dep ([2]; V001): 58
- ELISpot IFN-γ activity, CD8 dep ([2]; V001): 37
- ELISpot IFN-γ activity, Control dep ([2]; V001): 85

Sequence: ETQKCEIFNV (listed as Plasmodium falciparum) [Epitope 10]
- CD8^+ T cell IFN-γ response in ICS [4]: very weak CD8^+ IFN-γ responses
- multifunctional CD8^+ T cell responses in ICS ([4]; v008 and v012, any two of IFN-γ, IL-2, TNF-α, FIG. 1 lower panel): did not appear to induce multifunctional responses

Sequence: MTLDEMRHFYKDNKY [Ap4-10]
- IFN-γ ELISpot activity of individual 15-mer peptide ([1]; Volunteer 002): 82 SFC/10^6
- IFN-γ ELISpot activity of individual 15-mer peptide ([1]; Volunteer 005): 118 SFC/10^6

Sequence: LMSPMTLDEMRHFYK [Ap4-9]
- IFN-γ ELISpot activity of individual 15-mer peptide ([1]; Volunteer 002): 189 SFC/10^6
- IFN-γ ELISpot activity of individual 15-mer peptide ([1]; Volunteer 005): 395 SFC/10^6
- % change of ELISpot activity, CD4 dep vs control ([2]; V005): −32%
- % change of ELISpot activity, CD8 dep vs control ([2]; V005): −100%
- ELISpot IFN-γ activity, CD4 dep ([2]; V005): 137
- ELISpot IFN-γ activity, CD8 dep ([2]; V005): 1
- ELISpot IFN-γ activity, Control dep ([2]; V005): 204

Sequence: QNSDVYRPINEHREH [Ap1-9]
- IFN-γ ELISpot activity of individual 15-mer peptide ([1]; Volunteer 001): 48 SFC/10^6

Sequence: RYKSHGKGYNWGNYN [Ap8-7]
- CD4^+ depletion % change [3, 5]: 26%
- CD8^+ Depletion % change [3, 5]: 99%
- CD4^+ depletion, test [3, 5]: 54 SFC/10^6
- CD8^+ Depletion, test [3, 5]: 1 SFC/10^6
- CD4^+ depletion, control [3, 5]: 72 SFC/10^6
- CD8^+ Depletion, control [3, 5]: 72 SFC/10^6

Sequence: EMRHFYKDNKYVKNL [Ap4-11]
- IFN-γ ELISpot activity of individual 15-mer peptide ([1]; Volunteer 005): 65 SFC/10^6
- ELISpot activity of 1 month PBMC [1]: 65 sfc/m

Sequence: CNKLVFELSASDQPK [Ap7-7]
- IFN-γ ELISpot activity of individual 15-mer peptide ([1]; Volunteer 001): 77 SFC/10^6

Sequence: KEYEYPLHQEHTYQQ [Ap1-13]
- IFN-γ ELISpot activity of individual 15-mer peptide ([1]; Volunteer 001): 42 SFC/10^6
- % change of ELISpot activity, CD4 dep vs control ([2]; V001): +133%
- % change of ELISpot activity, CD8 dep vs control ([2]; V001): −76%
- ELISpot IFN-γ activity, CD4 dep ([2]; V001): 168
- ELISpot IFN-γ activity, CD8 dep ([2]; V001): 17
- ELISpot IFN-γ activity, Control dep ([2]; V001): 72

Sequence: NSTCRFFVCK (listed as Plasmodium falciparum)
- CD4^+ depletion % change [3, 6]: 26%
- CD8^+ Depletion % change [3, 6]: 100%
- CD4^+ depletion, test [3, 6]: 153 SFC/10^6
- CD8^+ Depletion, test [3, 6]: 0 SFC/10^6
- CD4^+ depletion, control [3, 6]: 207 SFC/10^6
- CD8^+ Depletion, control [3, 6]: 207 SFC/10^6
- T-cell response in ELISpot ([3]; primarily attributable to CD8^+ T-cell response): stimulated a significant T-cell response

Sequence: HVNEFPAIDLFECNK [Ap7-4]
- IFN-γ ELISpot activity of individual 15-mer peptide ([1]; Volunteer 001): 96 SFC/10^6
